ChEMBL document CHEMBL2074462, “MRP4: A previously unidentified factor in resistance to nucleoside-based antiviral drugs” (Nat Med, 1999)

Molecular target: T1, ATP-binding cassette sub-family C member 4 (Homo sapiens, UniProt O15439)
T1 sequence (O15439 whole entry): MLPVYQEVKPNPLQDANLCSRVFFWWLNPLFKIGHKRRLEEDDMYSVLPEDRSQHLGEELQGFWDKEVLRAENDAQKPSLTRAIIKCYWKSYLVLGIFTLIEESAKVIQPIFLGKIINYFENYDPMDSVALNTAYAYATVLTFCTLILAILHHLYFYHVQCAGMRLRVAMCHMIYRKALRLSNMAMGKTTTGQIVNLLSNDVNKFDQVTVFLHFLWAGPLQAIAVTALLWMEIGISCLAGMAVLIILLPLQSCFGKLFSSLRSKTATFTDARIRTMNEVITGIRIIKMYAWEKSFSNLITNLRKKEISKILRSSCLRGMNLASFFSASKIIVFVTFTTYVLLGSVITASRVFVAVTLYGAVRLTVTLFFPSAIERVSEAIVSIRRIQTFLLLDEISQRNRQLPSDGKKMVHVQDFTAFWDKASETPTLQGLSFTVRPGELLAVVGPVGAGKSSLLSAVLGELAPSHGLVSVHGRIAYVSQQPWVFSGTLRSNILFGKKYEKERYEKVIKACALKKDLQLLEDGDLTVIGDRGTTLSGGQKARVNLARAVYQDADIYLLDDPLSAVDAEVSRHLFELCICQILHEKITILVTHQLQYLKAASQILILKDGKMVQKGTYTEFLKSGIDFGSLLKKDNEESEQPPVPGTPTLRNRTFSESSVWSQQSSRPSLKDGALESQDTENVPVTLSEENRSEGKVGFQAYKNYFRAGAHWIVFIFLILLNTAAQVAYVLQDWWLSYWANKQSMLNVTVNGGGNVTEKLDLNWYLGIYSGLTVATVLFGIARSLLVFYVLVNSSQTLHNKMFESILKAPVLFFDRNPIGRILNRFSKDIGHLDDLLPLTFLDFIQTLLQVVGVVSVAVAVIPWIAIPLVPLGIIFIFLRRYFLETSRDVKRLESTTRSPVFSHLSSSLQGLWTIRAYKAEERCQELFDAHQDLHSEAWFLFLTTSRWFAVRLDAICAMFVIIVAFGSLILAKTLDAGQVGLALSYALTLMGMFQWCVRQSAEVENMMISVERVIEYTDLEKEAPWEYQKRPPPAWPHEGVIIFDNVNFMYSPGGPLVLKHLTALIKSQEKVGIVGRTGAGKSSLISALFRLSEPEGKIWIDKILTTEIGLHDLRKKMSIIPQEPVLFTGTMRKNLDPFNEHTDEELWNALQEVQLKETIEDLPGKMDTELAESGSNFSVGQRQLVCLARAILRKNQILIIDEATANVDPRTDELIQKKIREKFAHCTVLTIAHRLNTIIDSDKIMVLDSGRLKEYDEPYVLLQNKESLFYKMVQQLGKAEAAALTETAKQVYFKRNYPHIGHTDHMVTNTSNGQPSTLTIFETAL
Assay: TP_TRANSPORTER: efflux in CEM-r1 cells
Type: functional, cell-based

| SMILES | Activity |
| --- | --- |
| Nc1ncnc2c1ncn2CCOCP(=O)(O)O [ADEFOVIR] | substrate [+] |
| Cc1cn([C@H]2C[C@H](N=[N+]=[N-])[C@@H](COP(=O)(O)O)O2)c(=O)[nH]c1=O [AZIDOTHYMIDINE MONOPHOSPHATE] | substrate [+] |
